Source: article PMC7442133, “Reduced treatment frequencies with bumped kinase inhibitor 1369 are effective against porcine cystoisosporosis” (International Journal for Parasitology: Drugs and Drug …, 2020)
Values joined by “and” are separate entries in the source; they are usually repeats but may differ in a detail not shown here. Equal values may be shown once.

Assays:
C. suis merozoites = test: Merozoite replication (growth) inhibition in infected IPEC-1 cultures, free merozoites counted 9 dpi; assay type: cell-based, Cystoisospora suis; conditions: for Decrease of total merozoite counts: 400 nM once at 2 dpi, vs DMSO-only and no-treatment controls; for Merozoite replication at 9 dpi: 50 nM, P < 0.05 vs DMSO-only and no-treatment
Description: (§1) The laboratory strain C. suis Wien I ([Joachim and Mundt, 2011]), was maintained by passage in suckling piglets every 3–6 months and infectivity in vivo was assessed regularly at the Institute of Parasitology, University of Veterinary Medicine, Vienna. Oocysts were purified from collected feces, brought to sporulation and stored as described elsewhere ([Worliczek et al., 2013]). For in vitro studies, sporozoites were excysted ([Worliczek et al., 2013]), enumerated with a hemocytometer and used immediately for infection of semi-permanent intestinal porcine epithelial cells (IPEC-1). For in vivo studies, sporulated oocysts were washed with tap water and enumerated prior to infection of piglets.
IPEC-1 cells were maintained in culture medium at 37 °C and 5% CO2 (DHEM/HAM12 supplemented with 5% fetal calf serum and penicillin/streptomycin; Gibco via Thermo Fisher, Vienna, Austria). Cells (4 × 10^4) were used to seed 24-well plates and grown to confluence. All BKI compounds were stored as 20 mM stock solutions in 100% dimethyl sulfoxide (DMSO) at −20 °C. Cell viability in the presence of DMSO and BKIs was determined by colorimetric cell proliferation (WST-1) assays ([Shrestha et al., 2019]). In addition IPEC-1 cells were infected with serial dilutions of C. suis sporozoites, obtained after excystation to evaluate the growth curves of merozoites during 5–9 days of cultivation. To determine the effect of BKI 1369 on parasite replication, sporozoites (5 × 10^2) were added to each well one day after seeding of host cells and incubated with different concentrations of BKI 1369 at 40 °C for various time periods or a DMSO control, in triplicate.
(§2) In order to test whether BKI 1369 affects initial host cell invasion by C. suis, freshly excysted sporozoites were pre-incubated with BKI 1369 or DMSO for 6 h at 37 °C. Subsequently, sporozoites were washed with medium and used for infection of cell monolayers (5 × 10^2/well), in triplicate. Readout for both growth (merozoite replication) and invasion-inhibition experiments was microscopical evaluation by counting free merozoites 9 days post-infection (dpi) from culture supernatants. Supernatants were collected and free merozoites were counted in pooled samples at 9 dpi from quadruplicate wells in C-Chip disposable hemocytometers (NanoEnTek/Roth Lactan, Graz, Austria). All assays included DMSO and no-treatment controls in quadruplicate.
Statistical calculations for in vivo trials were performed with RStudio version 1.1.453 (RStudio Team, 2018), descriptive statistics with Microsoft Excel 2010 (Microsoft Inc., Vienna, Austria) and GraphPad Prism version 5.04 for Windows (GraphPad Software, San Diego, California USA). Differences in clinical and parasitological parameters between groups were analyzed with ANOVA in the case of normal distribution and variance homogeneity of the data, or a Kruskal-Wallis rank sum test if this was not the case. In the event of significance for the omnibus tests, parametric or non-parametric post-hoc tests for multiple comparisons were performed (according to Tukey and Conover, respectively), with P-value adjustment after Bonferroni. In vitro assays were evaluated by t-tests with significance reported at P < 0.05. For testing of efficacy in vitro, the percentage of growth/invasion inhibition was calculated as follows: % inhibition = (1−No. of merozoites counted at 9 dpi in BKI 1369 treated culture /No. of merozoites counted at 9 dpi in DMSO-only treated culture)x100

C. suis (strain Wien-I) [1] = test: Oocyst excretion of experimentally infected suckling piglets (autofluorescence, modified McMaster); assay type: in vivo, Cystoisospora suis; conditions: for Start of oocyst excretion (study day): controls started SD 8
C. suis sporozoites = test: Invasion inhibition: sporozoites pre-incubated with BKI 1369, free merozoites counted 9 dpi in IPEC-1 cultures; assay type: cell-based, Cystoisospora suis
Description: as §1
IPEC-1 cells were maintained in culture medium at 37 °C and 5% CO2 (DHEM/HAM12 supplemented with 5% fetal calf serum and penicillin/streptomycin; Gibco via Thermo Fisher, Vienna, Austria). Cells (4 × 10^4) were used to seed 24-well plates and grown to confluence. […] Cell viability in the presence of DMSO and BKIs was determined by colorimetric cell proliferation (WST-1) assays ([Shrestha et al., 2019]). […]
as §2, with “Subsequently, sporozoites were washed with medium and used for infection of cell monolayers (5 × 10^2/well), in triplicate.” left out, “All assays included DMSO and no-treatment controls in quadruplicate.” left out
Statistical calculations for in vivo trials were performed with RStudio version 1.1.453 (RStudio Team, 2018), descriptive statistics with Microsoft Excel 2010 (Microsoft Inc., Vienna, Austria) and GraphPad Prism version 5.04 for Windows (GraphPad Software, San Diego, California USA). […] In vitro assays were evaluated by t-tests with significance reported at P < 0.05. […]

C. suis (strain Wien-I) [2] = test: Fecal score and diarrhea of experimentally infected suckling piglets; assay type: in vivo, Cystoisospora suis
[3] = Exp I group A: 1 × 20 mg/kg BW oral, SD 3 (0 dpi)
[4] = Exp I group B: 1 × 20 mg/kg BW oral, SD 5 (2 dpi)
[5] = Exp II group W: 1 × 20 mg/kg BW oral, SD 5 (2 dpi)
[6] = Exp II group X: 1 × 10 mg/kg BW oral, SD 5 (2 dpi)
[7] = Exp II group Y: 1 × 5 mg/kg BW oral, SD 5 (2 dpi)
[8] = single treatment 20 mg/kg BW 2 dpi
[9] = single treatment 20 mg/kg BW on the day of infection
[10] = Exp I group C: 2 × 20 mg/kg BW oral, SD 5 & SD 7 (2 & 4 dpi)

CCOc1ccc2cc(-c3nn(CC4CCNCC4)c4ncnc(N)c34)ccc2n1 [BKI 1318]
Decrease of total merozoite counts (C. suis merozoites): 85.1%

CCOc1ccc2cc(-c3nn(CC4CCN(C)CC4)c4ncnc(N)c34)ccc2n1 [BKI 1369]
Merozoite replication at 9 dpi (C. suis merozoites; incubation 0–3 dpi): significantly inhibited merozoite replication | Merozoite replication at 9 dpi (C. suis merozoites; incubation 3–6 dpi): significantly inhibited merozoite replication | Decrease of total merozoite counts (C. suis merozoites): 96.1% | Concentrations giving significant reduction of merozoite replication at 9 dpi (C. suis merozoites; single application 2 dpi): ≥ 200 nM | Start of oocyst excretion (study day) (C. suis (strain Wien-I) [1]; Exp I group A: 1 × 20 mg/kg BW day of infection): 11 SD | Mean AUC for OpG (C. suis (strain Wien-I) [1]; [3]): 4861.8 | Number of excretion days ± SD (mean duration of oocyst excretion) (C. suis (strain Wien-I) [1]; Exp I group A: 1 × 20 mg/kg BW oral, SD 3 (0 dpi), 20 mg/kg): 1 ± 1.6 days and 1 ± 1.56 days | Piglets that excreted oocysts (C. suis (strain Wien-I) [1]; Exp I group A: 1 × 20 mg/kg BW, day of infection): 50% | Number of piglets that excreted oocysts (C. suis (strain Wien-I) [1]; Exp I group B: 1 × 20 mg/kg BW 2 dpi, 11 piglets): two | Start of oocyst excretion (study day) (C. suis (strain Wien-I) [1]; Exp I group B: 1 × 20 mg/kg BW 2 dpi): 16 SD | Mean AUC for OpG (C. suis (strain Wien-I) [1]; [4]): 333 | Number of excretion days ± SD (C. suis (strain Wien-I) [1]; [4]): 0.45 ± 1.03 days | Oocyst excretion (in words) (C. suis (strain Wien-I) [1]; Exp I group C: two doses of 20 mg/kg BW at 2 and 4 dpi, 20 mg/kg): completely suppressed oocyst excretion | Number of piglets that excreted oocysts (C. suis (strain Wien-I) [1]; Exp II group W: 1 × 20 mg/kg BW 2 dpi, 10 piglets, excreted only once on SD 16): one | Mean AUC for OpG (C. suis (strain Wien-I) [1]; [5]): 99.9 | Number of excretion days ± SD (C. suis (strain Wien-I) [1]; [5]): 0.1 ± 0.32 days | Oocyst excretion (in words) (C. suis (strain Wien-I) [1]; Exp II group W: single dose of 20 mg/kg BW 2 dpi): effectively suppressed | Mean AUC for OpG (C. suis (strain Wien-I) [1]; [6]): 20129.85 | Number of excretion days ± SD (mean duration of oocyst excretion) (C. suis (strain Wien-I) [1]; Exp II group X: 1 × 10 mg/kg BW oral, SD 5 (2 dpi), 10 mg/kg): 1.3 ± 2.7 days and 1.3 ± 2.75 days | Piglets that excreted oocysts (C. suis (strain Wien-I) [1]; Exp II group X: 1 × 10 mg/kg BW, 2 dpi): 50% | Number of piglets that excreted oocysts (C. suis (strain Wien-I) [1]; Exp II group X: single dose of 10 mg/kg BW 2 dpi): 5 out of 10 | Mean AUC for OpG (C. suis (strain Wien-I) [1]; [7]): 56610 | Number of excretion days ± SD (mean duration of oocyst excretion) (C. suis (strain Wien-I) [1]; Exp II group Y: 1 × 5 mg/kg BW oral, SD 5 (2 dpi), 5 mg/kg): 3.6 ± 1.9 days and 3.6 ± 1.94 days | Piglets that excreted oocysts (C. suis (strain Wien-I) [1]; Exp II group Y: 1 × 5 mg/kg BW, 2 dpi): 90% | Control of parasitic shedding and diarrhea (in words) (C. suis (strain Wien-I) [1]; single application of 5 mg/kg BW 2 dpi): completely failed to control parasitic shedding and diarrhea | Piglets in which oocyst excretion was suppressed (C. suis (strain Wien-I) [1]; [8]): 82% | Reduction of quantitative oocyst excretion in those that shed oocysts (C. suis (strain Wien-I) [1]; [8]): 98.4% | Piglets in which oocyst excretion was suppressed (C. suis (strain Wien-I) [1]; [9]): 50% | Reduction of quantitative oocyst excretion in those that shed oocysts (C. suis (strain Wien-I) [1]; [9]): 95.2% | Minimal effective dose against cystoisosporosis (C. suis (strain Wien-I) [1]; single treatment 2 dpi, piglets): 10 mg/kg BW | Pre-incubation concentrations that significantly reduced total merozoite counts at 9 dpi (C. suis sporozoites; sporozoites pre-incubated 6 h at 37 °C, washed, IPEC-1, P < 0.05 vs DMSO-only and no-treatment): ≥ 200 nM | Pre-incubation concentrations that completely failed to inhibit host cell invasion (C. suis sporozoites; sporozoites pre-incubated 6 h at 37 °C, washed, IPEC-1, vs DMSO-only and no-treatment): ≤ 100 nM | Inhibition of infection in vitro by pre-incubation of sporozoites (C. suis sporozoites; unless treatment was prolonged post-infection): completely failed to inhibit the infection | % piglets with diarrhea at least once (C. suis (strain Wien-I) [2]; [3]): 60% | Number of diarrhea days ± SD (C. suis (strain Wien-I) [2]; [3]): 1.4 ± 1.71 days | % piglets with diarrhea at least once (C. suis (strain Wien-I) [2]; [4]): 18.18% | Number of diarrhea days ± SD (C. suis (strain Wien-I) [2]; [4]): 0.27 ± 0.65 days | % piglets with diarrhea at least once (C. suis (strain Wien-I) [2]; [10]): 27.27% | Number of diarrhea days ± SD (C. suis (strain Wien-I) [2]; [10]): 0.45 ± 0.93 days | Mean FS and diarrhea days compared to control piglets (in words) (C. suis (strain Wien-I) [2]; Exp I: single dose 20 mg/kg BW at 2 dpi): significantly lower mean FS and fewer diarrhea days | Effect on diarrhea (in words) (C. suis (strain Wien-I) [2]; Exp I: single dose of 20 mg/kg BW on the day of infection): failed to reduce occurrence of diarrhea | Mean FS and diarrhea days compared to control piglets (in words) (C. suis (strain Wien-I) [2]; Exp I: two doses 20 mg/kg BW at 2 and 4 dpi): significantly lower mean FS and fewer diarrhea days | % piglets with diarrhea at least once (C. suis (strain Wien-I) [2]; [5]): 10% | Number of diarrhea days ± SD (C. suis (strain Wien-I) [2]; [5]): 0.2 ± 0.63 days | % piglets with diarrhea at least once (C. suis (strain Wien-I) [2]; [6]): 40% | Number of diarrhea days ± SD (C. suis (strain Wien-I) [2]; [6]): 0.5 ± 0.70 days | % piglets with diarrhea at least once (C. suis (strain Wien-I) [2]; [7]): 77.80% | Number of diarrhea days ± SD (C. suis (strain Wien-I) [2]; [7]): 2.6 ± 1.88 days | Effect on diarrhea (in words) (C. suis (strain Wien-I) [2]; Exp II: 5 mg/kg BW at 2 dpi): completely failed to control diarrhea | Effect on diarrhea (in words) (C. suis (strain Wien-I) [2]; Exp II: 10 mg/kg BW at 2 dpi): effectively suppressed diarrhea | Effect on diarrhea (in words) (C. suis (strain Wien-I) [2]; Exp II: 20 mg/kg BW at 2 dpi): effectively suppressed diarrhea | Number of diarrhea days compared to control piglets (in words) (C. suis (strain Wien-I) [2]; irrespective of time points and frequencies of treatment): reduced number of diarrhea days
